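Here, GI50 denotes the concentration required for 50% inhibition of growth. TGI: concentration producing complete growth inhibition.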
Assays:
Experiment in all cases: NCI-60 cell line screen, 384-well format
COLO 205 colon = system: COLO 205 colon
SF-268 CNS = system: SF-268 CNS
UO-31 renal = system: UO-31 renal
OVCAR-4 ovarian = system: OVCAR-4 ovarian
MDA-MB-231 breast = system: MDA-MB-231 breast
OVCAR-8 ovarian = system: OVCAR-8 ovarian
CAKI-1 renal = system: CAKI-1 renal
SNB-19 CNS = system: SNB-19 CNS
HOP-62 NSCLC = system: HOP-62 NSCLC
HCC-2998 colon = system: HCC-2998 colon
NCI-H460 NSCLC = system: NCI-H460 NSCLC
KM12 colon = system: KM12 colon
OVCAR-5 ovarian = system: OVCAR-5 ovarian
TK-10 renal = system: TK-10 renal
HL-60(TB) leukemia = system: HL-60(TB) leukemia
IGROV1 ovarian = system: IGROV1 ovarian
A498 renal = system: A498 renal
A549 NSCLC = system: A549 NSCLC
LOX IMVI melanoma = system: LOX IMVI melanoma
PC-3 prostate = system: PC-3 prostate
EKVX NSCLC = system: EKVX NSCLC
RPMI-8226 leukemia = system: RPMI-8226 leukemia
SK-MEL-28 melanoma = system: SK-MEL-28 melanoma
UACC-62 melanoma = system: UACC-62 melanoma
HCT-116 colon = system: HCT-116 colon
NCI/ADR-RES ovarian = system: NCI/ADR-RES ovarian
NCI-H322M lung = system: NCI-H322M lung
MCF7 breast = system: MCF7 breast
UACC-257 melanoma = system: UACC-257 melanoma
MOLT-4 leukemia = system: MOLT-4 leukemia
OVCAR-3 ovarian = system: OVCAR-3 ovarian
DU-145 prostate = system: DU-145 prostate
CCRF-CEM leukemia = system: CCRF-CEM leukemia
NCI-H226 lung = system: NCI-H226 lung
U251 glioblastoma = system: U251 glioblastoma
ACHN renal = system: ACHN renal
MDA-MB-435 melanoma = system: MDA-MB-435 melanoma
786-0 renal = system: 786-0 renal
NCI-H23 lung = system: NCI-H23 lung
HS 578T breast = system: HS 578T breast
SK-MEL-5 melanoma = system: SK-MEL-5 melanoma
SF-295 CNS = system: SF-295 CNS
HCT-15 colon = system: HCT-15 colon
BT-549 breast = system: BT-549 breast
MDA-MB-468 breast = system: MDA-MB-468 breast
SF-539 CNS = system: SF-539 CNS
RXF 393 renal = system: RXF 393 renal
SW-620 colon = system: SW-620 colon
NCI-H522 lung = system: NCI-H522 lung
SN12C renal = system: SN12C renal
M14 melanoma = system: M14 melanoma
SR leukemia = system: SR leukemia
HT29 colon = system: HT29 colon
K-562 leukemia = system: K-562 leukemia
MALME-3M melanoma = system: MALME-3M melanoma
SNB-75 CNS = system: SNB-75 CNS
SK-MEL-2 melanoma = system: SK-MEL-2 melanoma
T-47D breast = system: T-47D breast
HOP-92 NSCLC = system: HOP-92 NSCLC

Work on `CCS(=O)(=O)N1CCN(c2ccc(Nc3ncc(C(N)=O)c(NC4CC4)n3)cc2)CC1` yielded a GI50 (COLO 205 colon) of 0.485 µM, a TGI (COLO 205 colon) of 2.18 µM and a GI50 (SF-268 CNS) of 1.9 µM. The TGI (SF-268 CNS) was 21.5 µM, the GI50 (UO-31 renal) was 2.92 µM and the TGI (UO-31 renal) was > 100 µM. It also gave a GI50 (OVCAR-4 ovarian) of 2.06 µM, a TGI (OVCAR-4 ovarian) of 5.72 µM and a GI50 (MDA-MB-231 breast) of 2.93 µM. It also gave a TGI (MDA-MB-231 breast) of 33.6 µM, a GI50 (OVCAR-8 ovarian) of 0.371 µM and a TGI (OVCAR-8 ovarian) of 1.4 µM. For the same compound, the GI50 (CAKI-1 renal) was 6.05 µM, the TGI (CAKI-1 renal) was > 100 µM and the GI50 (SNB-19 CNS) was 8.88 µM. For the same compound, the TGI (SNB-19 CNS) was > 100 µM, the GI50 (HOP-62 NSCLC) was 1.89 µM and the TGI (HOP-62 NSCLC) was 5.01 µM. It also gave a GI50 (HCC-2998 colon) of 2.5 µM, a TGI (HCC-2998 colon) of 5.15 µM and a GI50 (NCI-H460 NSCLC) of 3.17 µM. For the same compound, the TGI (NCI-H460 NSCLC) was 51.7 µM, the GI50 (KM12 colon) was 0.44 µM and the TGI (KM12 colon) was 12 µM. It also gave a GI50 (OVCAR-5 ovarian) of 4.25 µM, a TGI (OVCAR-5 ovarian) of 18.7 µM and a GI50 (TK-10 renal) of 2.2 µM. For the same compound, the TGI (TK-10 renal) was 5.5 µM, the GI50 (HL-60(TB) leukemia) was 0.418 µM and the TGI (HL-60(TB) leukemia) was 2.04 µM. For the same compound, the GI50 (IGROV1 ovarian) was 2.82 µM, the TGI (IGROV1 ovarian) was 16.3 µM and the GI50 (A498 renal) was 1.68 µM. For the same compound, the TGI (A498 renal) was 5.19 µM, the GI50 (A549 NSCLC) was 1.83 µM and the TGI (A549 NSCLC) was > 100 µM. It also gave a GI50 (LOX IMVI melanoma) of 2.01 µM, a TGI (LOX IMVI melanoma) of 13.3 µM and a GI50 (PC-3 prostate) of 10.4 µM. For the same compound, the TGI (PC-3 prostate) was > 100 µM, the GI50 (EKVX NSCLC) was 1.92 µM and the TGI (EKVX NSCLC) was 10.2 µM. It also gave a GI50 (RPMI-8226 leukemia) of 0.155 µM, a TGI (RPMI-8226 leukemia) of 0.401 µM and a GI50 (SK-MEL-28 melanoma) of 2.93 µM. The TGI (SK-MEL-28 melanoma) was 50.7 µM, the GI50 (UACC-62 melanoma) was 9.42 µM and the TGI (UACC-62 melanoma) was 23.9 µM. It also gave a GI50 (HCT-116 colon) of 3.72 µM, a TGI (HCT-116 colon) of 91.1 µM and a GI50 (NCI/ADR-RES ovarian) of 7.08 µM. It also gave a TGI (NCI/ADR-RES ovarian) of 28.6 µM, a GI50 (NCI-H322M lung) of 1.59 µM and a TGI (NCI-H322M lung) of 3.93 µM. It also gave a GI50 (MCF7 breast) of 1.41 µM, a TGI (MCF7 breast) of 22.3 µM and a GI50 (UACC-257 melanoma) of 10.2 µM. The TGI (UACC-257 melanoma) was 63 µM, the GI50 (MOLT-4 leukemia) was 0.381 µM and the TGI (MOLT-4 leukemia) was 1.54 µM. The GI50 (OVCAR-3 ovarian) was 2.61 µM, the TGI (OVCAR-3 ovarian) was 7.63 µM and the GI50 (DU-145 prostate) was 2.82 µM. It also gave a TGI (DU-145 prostate) of 18.8 µM, a GI50 (CCRF-CEM leukemia) of 0.366 µM and a TGI (CCRF-CEM leukemia) of 1.27 µM. The GI50 (NCI-H226 lung) was 0.633 µM, the TGI (NCI-H226 lung) was 10.6 µM and the GI50 (U251 glioblastoma) was 6.79 µM. The TGI (U251 glioblastoma) was > 100 µM, the GI50 (ACHN renal) was 4.3 µM and the TGI (ACHN renal) was > 100 µM. It also gave a GI50 (MDA-MB-435 melanoma) of 1.63 µM, a TGI (MDA-MB-435 melanoma) of 8.98 µM and a GI50 ([…]-0 renal) of 1.6 µM. The TGI (786-0 renal) was 3.41 µM, the GI50 (NCI-H23 lung) was 1.29 µM and the TGI (NCI-H23 lung) was 4.25 µM. The GI50 (HS 578T breast) was 2.01 µM, the TGI (HS 578T breast) was 4.45 µM and the GI50 (SK-MEL-5 melanoma) was 1.39 µM. For the same compound, the TGI (SK-MEL-5 melanoma) was 4.65 µM, the GI50 (SF-295 CNS) was 1.26 µM and the TGI (SF-295 CNS) was 3.43 µM. The GI50 (HCT-15 colon) was 1.58 µM, the TGI (HCT-15 colon) was 3.27 µM and the GI50 (BT-549 breast) was 1.1 µM. The TGI (BT-549 breast) was 2.51 µM, the GI50 (MDA-MB-468 breast) was 2.05 µM and the TGI (MDA-MB-468 breast) was 3.75 µM. It also gave a GI50 (SF-539 CNS) of 1.18 µM, a TGI (SF-539 CNS) of 2.73 µM and a GI50 (RXF 393 renal) of 1.51 µM. For the same compound, the TGI (RXF 393 renal) was 3.73 µM, the GI50 (SW-620 colon) was 44.9 µM and the TGI (SW-620 colon) was > 100 µM. The GI50 (NCI-H522 lung) was 0.674 µM, the TGI (NCI-H522 lung) was 4.97 µM and the GI50 (SN12C renal) was 1.76 µM. It also gave a TGI (SN12C renal) of 10.2 µM, a GI50 (M14 melanoma) of 0.301 µM and a TGI (M14 melanoma) of 3.42 µM. The GI50 (SR leukemia) was 0.368 µM, the TGI (SR leukemia) was 1.29 µM and the GI50 (HT29 colon) was 4.09 µM. It also gave a TGI (HT29 colon) of 56.4 µM, a GI50 (K-562 leukemia) of 2.06 µM and a TGI (K-562 leukemia) of 8.1 µM. It also gave a GI50 (MALME-3M melanoma) of 0.539 µM, a TGI (MALME-3M melanoma) of 4.14 µM and a GI50 (SNB-75 CNS) of 4.03 µM. For the same compound, the TGI (SNB-75 CNS) was 8.56 µM, the GI50 (SK-MEL-2 melanoma) was 1.87 µM and the TGI (SK-MEL-2 melanoma) was 3.89 µM. For the same compound, the GI50 (T-47D breast) was 2.23 µM, the TGI (T-47D breast) was 4.43 µM and the GI50 (HOP-92 NSCLC) was 3.72 µM. The TGI (HOP-92 NSCLC) was 14.9 µM.
